From patent publication US20180206498A1, “SUBSTITUTED HETEROARYL CARBOXYLIC ACID HYDRAZIDES OR SALTS THEREOF AND USE THEREOF TO INCREASE STRESS TOLERANCE IN PLANTS” (Bayer CropScience Aktiengesellschaft, priority 2015, published 2018)

tested on: Brassica napus; experiment: Drought stress in vivo analysis Part B, appearance vs stressed control plants in categories; design: key: 0: no positive effect; +: slight positive effect; ++: clear positive effect; +++: strong positive effect; conditions: spray 25 g/ha
Procedure: (§1) Seeds of monocotyledonous and dicotyledonous crop plants were sown in sandy loam in plastic pots, covered with soil or sand and cultivated in a greenhouse under good growth conditions. The test plants are treated at the early leaf stage (BBCH10-BBCH13). To assure uniform water supply before commencement of stress, the potted plants were supplied with water by dam irrigation prior to substance application. The inventive compounds were first formulated as wettable powders (WP) or dissolved in a solvent mixture. The further dilution was effected with water supplemented with 0.2% wetting agent (e.g. agrotin). The finished spray liquor was sprayed onto the green parts of the plant at an equivalent water application rate of 600 I/ha. Substance application was followed immediately by stress treatment of the plants. Drought Stress was Induced by Gradual Drying Out Under the Following Conditions: “Day”: 14 hours with illumination at […]-30° C. “Night”: 10 hours without illumination at 18-20° C. The duration of the respective stress phases was guided mainly by the condition of the stressed control plants. It was ended (by re-irrigating and transfer to a greenhouse with good growth conditions) as soon as irreversible damage was observed on the stressed control plants. The end of the stress phase was followed by an about 4-7-day recovery phase, during which the plants were once again kept under good growth conditions in a greenhouse. The duration of the recovery phase was guided mainly by when the trial plants had attained a state which enabled visual scoring of potential effects, and was therefore variable. Once this juncture had been reached, the appearance of the plants treated with test substances was recorded in comparison to the stressed control plants by the following categories: [table] In order to rule out any influence on the effects observed by any fungicidal or insecticidal action of the test compounds, it was additionally ensured that the tests proceeded without fungal infection or insect infestation. The values reported in tables B-1 and […] below are mean values of the results from at least three repeats. Effects of selected compounds of the general formula (I) under drought stress according to the following tables B-1 and B-2: BRSNS=Brassica napus ZEAMX=Zea mays TRZAS=Triticum aestivum

Row | SMILES | Effect (BRSNS)
1 | CN(C)N(Cc1ccc(F)cc1F)C(=O)c1c(C(F)(F)F)nn(C)c1Cl [Compound A1-15] | ++
2 | CN(C)N(Cc1ccccc1C#N)C(=O)c1c(C(F)(F)F)nn(C)c1F [Compound A2-61] | ++
3 | Cc1nc(-c2cccnc2)sc1C(=O)N(Cc1ccccc1Cl)N(C)C [Compound D1-1] | +
4 | Cc1nc(-c2cccnc2)sc1C(=O)N(Cc1ccccn1)N1CCCC1 [Compound D2-21] | +
5 | CN(C)N(Cc1ccccc1Cl)C(=O)c1sc(Cl)nc1Cl [Compound D6-1] | +
6 | CN(C)N(Cc1cccc(Cl)c1Cl)C(=O)c1sc(Cl)nc1Cl [Compound D6-4] | +
7 | CN(C)N(Cc1cccc(Cl)c1)C(=O)c1snc(N)c1Cl [Compound G1-2] | +
8 | CN(C)N(Cc1ccccc1F)C(=O)c1ccns1 [Compound G8-11] | +
9 | CN(C)N(Cc1ccccn1)C(=O)c1cnsn1 [Compound H1-21] | +

same assay, conditions: spray 250 g/ha

Row | SMILES | Effect (BRSNS)
10 | CN(C(=O)OC(C)(C)C)N(Cc1ccccc1Cl)C(=O)c1c(C(F)F)nn(C)c1F [Compound A13-1] | ++
11 | Cn1cc(C(=O)N(Cc2ccccc2Cl)N2CCCC2)c(C(F)F)n1 [Compound A20-1] | +
12 | CNN(Cc1ccccc1Cl)C(=O)c1c(C(F)F)nn(C)c1F [Compound A22-1] | +
13 | CCn1nc(C(F)F)c(C(=O)N(Cc2nccc(Cl)c2Cl)N2CCCC2)c1F [Compound A24-40] | +
14 | CN(C)N(Cc1nccc(Cl)c1Cl)C(=O)c1ccsc1C(F)F [Compound B3-40] | +
15 | CN(C)N(Cc1ccccc1F)C(=O)c1sc(Cl)nc1Cl [Compound D6-11] | +
16 | CN(C)N(Cc1ccccc1C#N)C(=O)c1sc(Cl)nc1Cl [Compound D6-61] | +
17 | CN(C)N(Cc1cccc(Cl)c1Cl)C(=O)c1snc(Cl)c1Cl [Compound E1-4] | +
18 | CCN(CC)N(Cc1ccccc1C#N)C(=O)c1snc(Cl)c1Cl [Compound E2-61] | +
19 | Cc1nnsc1C(=O)N(Cc1cccc(Cl)c1Cl)N(C)C [Compound F1-4] | +
20 | Cc1nnsc1C(=O)N(Cc1ccc(Cl)nc1)N(C)C [Compound F1-94] | +
21 | CC(C)c1nnsc1C(=O)N(Cc1cccc(Cl)c1Cl)N(C)C [Compound F2-4] | +
22 | CC(C)c1nnsc1C(=O)N(Cc1nccc(Cl)c1Cl)N(C)C [Compound F2-40] | +
23 | CN(C)N(Cc1cccc(Cl)c1Cl)C(=O)c1cc(OCc2ccccc2)ns1 [Compound G10-4] | +
24 | O=C(c1cnsn1)N(Cc1ncc(C(F)(F)F)cc1Cl)N1CCCC1 [Compound H2-36] | ++

tested on: Triticum aestivum; experiment: as above; design: key: 0: no positive effect; +: slight positive effect; ++: clear positive effect; +++: strong positive effect; conditions: spray 25 g/ha
Procedure: as §1

Row | SMILES | Effect (TRZAS)
25 | CN(C)N(Cc1ccc(F)cc1F)C(=O)c1c(C(F)(F)F)nn(C)c1Cl [Compound A1-15] | +
26 | CN(C)N(Cc1ccccc1C#N)C(=O)c1c(C(F)(F)F)nn(C)c1F [Compound A2-61] | +
27 | CN(C)N(Cc1cccc(Cl)c1Cl)C(=O)c1cn(C)nc1C(F)(F)F [Compound A4-4, N-(2,3-dichlorobenzyl)-N′,N′, 1-trimethyl-3-(trifluoromethyl)-1H-pyrazole-4-carbohydrazide] | +
28 | CN(C)N(Cc1ccccc1C#N)C(=O)c1cn(C)nc1C(F)(F)F [Compound A4-61] | +
29 | CN(C)N(Cc1ccccc1Cl)C(=O)c1cn(C)nc1C(F)F [Compound A8-1] | +
30 | CN(C(=O)OC(C)(C)C)N(Cc1ccc(Cl)cc1Cl)C(=O)c1c(C(F)F)nn(C)c1F [Compound A13-5] | +
31 | CN(C(=O)OC(C)(C)C)N(Cc1ccccc1Cl)C(=O)c1c(C(F)F)nn(C)c1Cl [Compound A14-1] | +
32 | CN(C(=O)OC(C)(C)C)N(CCc1ccc(Cl)cc1Cl)C(=O)c1c(C(F)F)nn(C)c1Cl [Compound A14-615] | +
33 | Cn1nc(C(F)F)c(C(=O)N(Cc2ccccc2C#N)N2CCCC2)c1Cl [Compound A18-61] | +
34 | CN(C)N(Cc1ccccn1)C(=O)c1ccsc1C(F)F [Compound B3-21] | +
35 | CCc1sccc1C(=O)N(Cc1ccccc1Cl)N(C)C [Compound B4-1] | +
36 | CCc1sccc1C(=O)N(Cc1ccccn1)N(C)C [Compound B4-21] | +
37 | CCc1sccc1C(=O)N(Cc1ccccc1C#N)N(C)C [Compound B4-61] | +
38 | Cc1nc(-c2cccnc2)sc1C(=O)N(Cc1ccccc1C#N)N(C)C [Compound D1-61] | +
39 | Cc1nc(-c2cccnc2)sc1C(=O)N(Cc1ccccc1C#N)N1CCCC1 [Compound D2-61] | +
40 | CN(C)N(Cc1cccc(Cl)c1Cl)C(=O)c1sc(Cl)nc1Cl [Compound D6-4] | +
41 | CN(C)N(Cc1ccccc1F)C(=O)c1sc(Cl)nc1Cl [Compound D6-11] | +
42 | CN(C)N(Cc1ccccc1C#N)C(=O)c1sc(Cl)nc1Cl [Compound D6-61] | +
43 | CN(C)N(Cc1ccc(Cl)nc1)C(=O)c1snc(Cl)c1Cl [Compound E1-94] | +
44 | CC(Cc1ccccc1)N(C(=O)c1snc(Cl)c1Cl)N(C)C (centres unmarked) [Compound E1-351] | +
45 | N#Cc1ccccc1CN(C(=O)c1snc(Cl)c1Cl)N1CCCC1 [Compound E5-61] | +
46 | CC(C)c1nnsc1C(=O)N(Cc1ccc(Cl)nc1)N(C)C [Compound F2-94] | +
47 | CN(C)N(Cc1ccccc1Cl)C(=O)c1snc(N)c1Cl [Compound G1-1] | +
48 | CN(C)N(Cc1ccccn1)C(=O)c1cc(OCc2ccccc2)ns1 [Compound G10-21] | +
49 | O=C(c1cnsn1)N(Cc1ccc(F)cc1F)N1CCCC1 [Compound H2-15] | ++

same assay, conditions: spray 250 g/ha

Row | SMILES | Effect (TRZAS)
50 | CCn1nc(C(F)F)c(C(=O)N(Cc2ccccc2C#N)N(C)C)c1F [Compound A7-61] | ++
51 | Cn1cc(C(=O)N(Cc2ccccc2C#N)N2CCCC2)c(C(F)F)n1 [Compound A20-61] | +
52 | CNN(Cc1ccccc1Cl)C(=O)c1c(C(F)F)nn(C)c1F [Compound A22-1] | +
53 | CCn1nc(C(F)F)c(C(=O)N(Cc2nccc(Cl)c2Cl)N2CCCC2)c1F [Compound A24-40] | +
54 | CCn1nc(C(F)F)c(C(=O)N(Cc2cccnc2C#N)N2CCCC2)c1F [Compound A24-679] | +
55 | CN(C)N(Cc1ccccc1C#N)C(=O)c1ccsc1C(F)F [Compound B3-61, N-(2-Cyanobenzyl)-2-(difluoromethyl)-N′,N′-dimethylthiophene-3-carbohydrazide] | +
56 | Cc1occc1C(=O)N(Cc1ccccc1C#N)N(C)C [Compound C3-61] | +
57 | Cc1nc(-c2cccnc2)sc1C(=O)N(Cc1ccccc1Cl)N(C)C [Compound D1-1] | +
58 | Cc1nc(-c2cccnc2)sc1C(=O)N(Cc1cccc(Cl)c1Cl)N(C)C [Compound D1-4] | +
59 | CN(C)N(Cc1ccccn1)C(=O)c1sc(Cl)nc1Cl [Compound D6-21] | +
60 | CN(C)N(Cc1ncc(C(F)(F)F)cc1Cl)C(=O)c1sc(Cl)nc1Cl [Compound D6-36] | +
61 | CN(C)N(Cc1ccc(Cl)nc1)C(=O)c1sc(Cl)nc1Cl [Compound D6-94] | +
62 | CN(C)N(Cc1ccccc1Cl)C(=O)c1snc(Cl)c1Cl [Compound E1-1] | +
63 | CN(C)N(Cc1ccc(Cl)cc1)C(=O)c1snc(Cl)c1Cl [Compound E1-3] | +
64 | CN(C)N(Cc1ccccc1C#N)C(=O)c1snc(Cl)c1Cl [Compound E1-61] | +
65 | Cc1nnsc1C(=O)N(Cc1cccc(Cl)c1Cl)N(C)C [Compound F1-4] | +
66 | Cc1nnsc1C(=O)N(Cc1ccccc1C#N)N(C)C [Compound F1-61] | +
67 | CC(C)c1nnsc1C(=O)N(Cc1ccccc1Cl)N(C)C [Compound F2-1, N-(2-Chlorobenzyl)-4-isopropyl-N′,N′-dimethyl-1,2,3-thiadiazole-5-carbohydrazide] | +
68 | CN(C)N(Cc1ncc(C(F)(F)F)cc1Cl)C(=O)c1ccns1 [Compound G8-36] | ++
69 | O=C(c1ccns1)N(Cc1ccc(F)cc1F)N1CCCC1 [Compound G9-15] | +
70 | O=C(c1ccns1)N(Cc1ccc(Cl)nc1)N1CCCC1 [Compound G9-94] | ++
71 | CN(C)N(Cc1ccccc1F)C(=O)c1cc(OCc2ccccc2)ns1 [Compound G10-11] | +
72 | CN(C)N(Cc1ncc(C(F)(F)F)cc1Cl)C(=O)c1cc(OCc2ccccc2)ns1 [Compound G10-36] | ++
73 | CN(C)N(Cc1ccccc1C#N)C(=O)c1cc(OCc2ccccc2)ns1 [Compound G10-61] | +
74 | Cc1c(OCc2ccccc2)nsc1C(=O)N(Cc1ncc(C(F)(F)F)cc1Cl)N(C)C [Compound G11-36] | ++
75 | O=C(c1cnsn1)N(Cc1ccccc1Cl)N1CCCC1 [Compound H2-1] | +
76 | O=C(c1cnsn1)N(Cc1ccc(Cl)cc1)N1CCCC1 [Compound H2-3] | +
77 | N#Cc1ccccc1CN(C(=O)c1cnsn1)N1CCCC1 [Compound H2-61] | +
